Consider one compound from ChEMBL document CHEMBL1142859, “Synthesis and characterization of a platinum(II) complex tethered to a ligand of the peripheral benzodiazepine receptor” (J Med Chem, 2007).

The assay addresses Translocator protein (Rattus norvegicus, UniProt P16257). In words: Displacement of [3H]PK 11195 from PBR in Sprague-Dawley rat cerebral cortex. Type of assay: tissue-based. On the technique in general: Displacement assays read how much labelled ligand stays bound in the presence of the test substance.

Sequence of Translocator protein (P16257 whole entry, looked up): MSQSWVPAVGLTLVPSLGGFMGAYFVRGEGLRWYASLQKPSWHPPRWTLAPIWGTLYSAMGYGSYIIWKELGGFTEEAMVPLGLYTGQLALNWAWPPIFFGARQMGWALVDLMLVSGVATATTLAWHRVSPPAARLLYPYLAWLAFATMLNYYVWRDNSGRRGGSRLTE

Usually IC50 stands for the point on the concentration scale where inhibition reaches its midpoint. Read a low IC50 as inhibition by little substance. In the case of `CCCN(CCC)C(=O)Cc1c(-c2nccs2)nc2c(Cl)cc(Cl)cn12`, the IC50 was found to be 2.81 nM.
